Activity calls are given as the source filed them. The calls are words filed in the database; no cut-off is given here.
Legend:
B16-F10 [1] = test: Cytotoxicity against mouse B16F10 cells after 3 days by MTT assay; assay type: functional, cell-based; settings: B16-F10, 72 h
[2] = Cytotoxicity against mouse CT26.WT cells after 3 days by MTT assay; assay type: functional, cell-based; settings: 72 h
SK-MEL-28 [3] = test: Cytotoxicity against human SK-MEL-28 cells after 3 days by MTT assay; assay type: functional, cell-based; settings: SK-MEL-28, 72 h
[4] = Cytotoxicity against human U373 cells after 3 days by MTT assay; assay type: functional, cell-based, U-373MG ATCC; settings: U373 MG, 72 h
A549 [5] = test: Cytotoxicity against human A549 cells after 3 days by MTT assay; assay type: functional, cell-based; settings: A549, 72 h
PC-3 [6] = test: Cytotoxicity against human PC3 cells after 3 days by MTT assay; assay type: functional, cell-based; settings: PC-3, 72 h
MCF7 [7] = test: Cytotoxicity against human MCF7 cells after 3 days by MTT assay; assay type: functional, cell-based; settings: MCF7, 72 h
[8] = Cytotoxicity against human Hs683 cells after 3 days by MTT assay; assay type: functional, cell-based; settings: Hs 683, 72 h
B16-F10 [9] = test: Cytotoxicity against mouse B16F10 cells at <= 10 uM after 3 days by MTT assay; assay type: functional, cell-based
CT26.WT = test: Cytotoxicity against mouse CT26.WT cells at <= 10 uM after 3 days by MTT assay; assay type: functional, cell-based
U-373MG ATCC = test: Cytotoxicity against human U373 cells at <= 10 uM after 3 days by MTT assay; assay type: functional, cell-based
SK-MEL-28 [10] = test: Cytotoxicity against human SK-MEL-28 cells at <= 10 uM after 3 days by MTT assay; assay type: functional, cell-based
A549 [11] = test: Cytotoxicity against human A549 cells at <= 10 uM after 3 days by MTT assay; assay type: functional, cell-based
PC-3 [12] = test: Cytotoxicity against human PC3 cells at <= 10 uM after 3 days by MTT assay; assay type: functional, cell-based
MCF7 [13] = test: Cytotoxicity against human MCF7 cells at <= 10 uM after 3 days by MTT assay; assay type: functional, cell-based
Hs 683 = test: Cytotoxicity against human Hs683 cells at <= 10 uM after 3 days by MTT assay; assay type: functional, cell-based

Compound | IC50 (B16-F10 [1]) | IC50 [2] | IC50 (SK-MEL-28 [3]) | IC50 [4] | IC50 (A549 [5]) | IC50 (PC-3 [6]) | IC50 (MCF7 [7]) | IC50 [8] | Activity (B16-F10 [9]) | Activity (CT26.WT) | Activity (U-373MG ATCC) | Activity (SK-MEL-28 [10]) | Activity (A549 [11]) | Activity (PC-3 [12]) | Activity (MCF7 [13]) | Activity (Hs 683)
C[C@]12CC[C@H]3[C@@H](CC[C@H]4C[C@@H](O)CC[C@@]43C=O)[C@@]1(O)CC[C@@H]2c1ccc(=O)oc1 | > 10000 nM | > 10000 nM | 336 nM | 62 nM | 51 nM | 2430 nM | 278 nM | 40 nM | – | – | – | – | – | – | – | –
C[C@]12CC[C@H](O)C[C@H]1CC[C@@H]1[C@@H]2C(=O)[C@@H](O)[C@]2(C)[C@@H](c3ccc(=O)oc3)CC[C@]12O [BUFARENOGIN] | > 10000 nM | > 10000 nM | > 10000 nM | > 10000 nM | 3840 nM | 7420 nM | 9300 nM | 2680 nM | – | – | – | – | – | – | – | –
COC(=O)[C@H]1CC[C@]2(OC=O)[C@@H]3CC[C@@H]4C[C@@H](OC(C)=O)CC[C@]4(C)[C@H]3[C@H](OC(C)=O)C(=O)[C@]12C | – | – | – | – | – | – | – | – | inactive | inactive | inactive | inactive | inactive | inactive | inactive | inactive
C[C@]12CC[C@H](O)C[C@H]1CC[C@@H]1C2=C(O)C(=O)[C@]2(C)[C@@H](c3ccc(=O)oc3)CC[C@]12O [ARGENTINOGENIN] | > 10000 nM | > 10000 nM | 70 nM | 86 nM | 53 nM | 43 nM | 36 nM | 9 nM | – | – | – | – | – | – | – | –
CC(=O)N[C@@H]1CC[C@@]2(C)[C@H](CC[C@@H]3[C@@H]2CC[C@]2(C)[C@@H](c4ccc(=O)oc4)[C@@H](OC(C)=O)[C@H]4O[C@]342)C1 | > 10000 nM | > 10000 nM | 3510 nM | 384 nM | 302 nM | 426 nM | 726 nM | 312 nM | – | – | – | – | – | – | – | –
CC(=O)O[C@H]1CC[C@@]2(C)[C@H](CC[C@@H]3[C@@H]2[C@H](OC(C)=O)C(=O)[C@]2(C)[C@@H]4CC[C@]32OC4=O)C1 | – | – | – | – | – | – | – | – | inactive | inactive | inactive | inactive | inactive | inactive | inactive | inactive
COC(=O)[C@H]1CC[C@]2(O)[C@@H]3CC[C@@H]4C[C@@H](OC(C)=O)CC[C@]4(C)[C@H]3[C@H](OC(C)=O)C[C@]12C | – | – | – | – | – | – | – | – | inactive | inactive | inactive | inactive | inactive | inactive | inactive | inactive
COC(=O)[C@H]1CC[C@]2(O)[C@@H]3CC[C@@H]4C[C@@H](OC(C)=O)CC[C@]4(C)[C@H]3[C@H](OC(C)=O)[C@@H](OC(C)=O)[C@]12C | – | – | – | – | – | – | – | – | inactive | inactive | inactive | inactive | inactive | inactive | inactive | inactive
CC(=O)O[C@H]1CC[C@@]2(C=O)[C@H](CC[C@@H]3[C@@H]2CC[C@]2(C)[C@@H](c4ccc(=O)oc4)C[C@H]4O[C@]342)C1 | > 10000 nM | > 10000 nM | > 10000 nM | 7050 nM | 7140 nM | 5340 nM | > 10000 nM | 3660 nM | – | – | – | – | – | – | – | –
C[C@@H]1O[C@@H](O[C@H]2CC[C@]3(C=O)[C@H]4CC[C@]5(C)[C@@H](c6ccc(=O)oc6)CC[C@]5(O)[C@@H]4CC[C@]3(O)C2)[C@H](O)[C@H](O)[C@H]1O[C@@H]1O[C@H](CO)[C@@H](O)[C@H](O)[C@H]1O [HELLEBRIN] | > 10000 nM | > 10000 nM | 68 nM | 36 nM | 6 nM | 11 nM | 44 nM | 7 nM | – | – | – | – | – | – | – | –
CC(=O)OC[C@H]1CC[C@H]2[C@@H]3CC[C@@H]4C[C@@H](OC(C)=O)CC[C@]4(C)[C@H]3C(=O)[C@@H](OC(C)=O)[C@]12C | – | – | – | – | – | – | – | – | inactive | inactive | inactive | inactive | inactive | inactive | inactive | inactive
COC(=O)[C@H]1[C@@H](O)[C@H]2O[C@]23[C@@H]2CC[C@@H]4C[C@@H](OC(C)=O)CC[C@]4(C)[C@H]2CC[C@]13C | – | – | – | – | – | – | – | – | inactive | inactive | inactive | inactive | inactive | inactive | inactive | inactive
CC(=O)O[C@H]1CC[C@@]2(C)[C@H](CC[C@@H]3[C@@H]2[C@H](OC(C)=O)C(=O)[C@]2(C)[C@@H](c4ccc(=O)oc4)CC[C@]32O)C1 | > 10000 nM | > 10000 nM | 7980 nM | 8810 nM | 5910 nM | > 10000 nM | 7260 nM | 2620 nM | – | – | – | – | – | – | – | –
COC(=O)[C@H]1CC[C@]2(O)[C@@H]3CC[C@@H]4C[C@@H](OC(C)=O)CC[C@]4(C)[C@H]3[C@H](OC(C)=O)C(=O)[C@]12C | – | – | – | – | – | – | – | – | inactive | inactive | inactive | inactive | inactive | inactive | inactive | inactive
C[C@]12CC[C@H](O)C[C@@H]1CC[C@@H]1[C@@H]2CC[C@]2(C)[C@@H](c3ccc(=O)oc3)CC[C@]12O | > 10000 nM | > 10000 nM | 463 nM | 362 nM | – | 67 nM | 428 nM | 21 nM | – | – | – | – | – | – | – | –
C[C@@H]1O[C@@H](O[C@H]2CC[C@@]3(C)[C@H](CC[C@@H]4[C@@H]3[C@H](O)C[C@]3(C)[C@@H](c5ccc(=O)oc5)CC[C@]43O)C2)[C@H](O)[C@H](O)[C@H]1O | 659 nM | 877 nM | 5 nM | 3 nM | < 1 nM | < 1 nM | 8 nM | 2 nM | – | – | – | – | – | – | – | –
C[C@H]1O[C@@H](O[C@H]2[C@@H](O)C[C@H](O[C@H]3[C@@H](O)C[C@H](O[C@H]4CC[C@@]5(C)[C@H](CC[C@@H]6[C@@H]5C[C@@H](O)[C@]5(C)[C@@H](C7=CC(=O)OC7)CC[C@]65O)C4)O[C@@H]3C)O[C@@H]2C)C[C@H](O)[C@@H]1O [DIGOXIN] | > 10000 nM | > 10000 nM | 266 nM | 146 nM | 50 nM | 75 nM | 426 nM | 40 nM | – | – | – | – | – | – | – | –
CC(=O)O[C@H]1C[C@]2(O)[C@@H]3CC[C@@H]4C[C@@H](O)CC[C@]4(C)[C@H]3CC[C@]2(C)[C@H]1c1ccc(=O)oc1 [BUFOTALIN] | > 10000 nM | > 10000 nM | 65 nM | 74 nM | 14 nM | 34 nM | 37 nM | 9 nM | – | – | – | – | – | – | – | –
C[C@]12CCC(=O)C=C1CC[C@@H]1[C@@H]2CC[C@]2(C)[C@@H](c3ccc(=O)oc3)CC[C@]12O [SCILLARENONE] | > 10000 nM | > 10000 nM | 1610 nM | 399 nM | 333 nM | 284 nM | 341 nM | 73 nM | – | – | – | – | – | – | – | –
C[C@]12CC[C@H](OC(c3ccccc3)c3ccccc3)C[C@@]1(O)CC[C@@H]1[C@@H]2CC[C@]2(C)[C@@H](C(=O)OC(c3ccccc3)c3ccccc3)CC[C@]12O | – | – | – | – | – | – | – | – | inactive | inactive | inactive | inactive | inactive | inactive | inactive | inactive
C[C@@H]1O[C@@H](O[C@H]2C[C@@H](O)[C@]3(CO)[C@H]4[C@H](O)C[C@]5(C)[C@@H](C6=CC(=O)OC6)CC[C@]5(O)[C@@H]4CC[C@]3(O)C2)[C@H](O)[C@H](O)[C@H]1O [OUABAIN] | > 10000 nM | > 10000 nM | 211 nM | 77 nM | 27 nM | 43 nM | 133 nM | 28 nM | – | – | – | – | – | – | – | –
